Measurements: PubChem BioAssay AID248 (DTP/NCI, 2004)
Where “and” joins values, the source holds several entries; their conditions need not be identical. Equal values may be shown once. Inconclusive results and toxic doses are left out. Rule as the data show it: active = T/C of 150% or more; inactive = T/C below 125%.

Tested on: L1210 leukemia ip in BDF1 mice, survival T/C
Assay: NCI In Vivo Anticancer Drug Screen. Data for tumor model L1210 Leukemia (intraperitoneal) in B6D2F1 (BDF1) mice
Conditions: endpoint: mean survival time, higher = longer survival
Method in brief: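 Read-out is survival time, reported as the treated-group measurement over the vehicle-control measurement.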

[1] = dose: 100.0 mg/kg/injection, schedule: Q01DX001 (ip), vehicle: carboxymethylcellulose (CMC)
[2] = dose: 200.0 mg/kg/injection, schedule: Q01DX001 (ip), vehicle: carboxymethylcellulose (CMC)
[3] = dose: 400.0 mg/kg/injection, schedule: Q01DX001 (ip), vehicle: carboxymethylcellulose (CMC)
[4] = dose: 100.0 mg/kg/injection, schedule: Q04DX003 (ip), vehicle: Klucel (hydroxypropylcellulose) (HPC)
[5] = dose: 200.0 mg/kg/injection, schedule: Q04DX003 (ip), vehicle: Klucel (hydroxypropylcellulose) (HPC)
[6] = dose: 400.0 mg/kg/injection, schedule: Q04DX003 (ip), vehicle: Klucel (hydroxypropylcellulose) (HPC)
[7] = dose: 100.0 mg/kg/injection, schedule: Q01DX001 (ip), vehicle: saline
[8] = dose: 100.0 mg/kg/injection, schedule: Q04DX002 (ip), vehicle: Klucel (hydroxypropylcellulose) (HPC)
[9] = dose: 200.0 mg/kg/injection, schedule: Q04DX002 (ip), vehicle: Klucel (hydroxypropylcellulose) (HPC)
[10] = dose: 400.0 mg/kg/injection, schedule: Q04DX002 (ip), vehicle: Klucel (hydroxypropylcellulose) (HPC)
[11] = dose: 50.0 mg/kg/injection, schedule: Q01DX001 (ip), vehicle: carboxymethylcellulose (CMC)
[12] = dose: 100.0 mg/kg/injection, schedule: Q01DX009 (ip), vehicle: saline with Tween-80
[13] = dose: 200.0 mg/kg/injection, schedule: Q01DX009 (ip), vehicle: saline with Tween-80
[14] = dose: 100.0 mg/kg/injection, schedule: Q04DX003 (ip), vehicle: saline with Tween-80
[15] = dose: 100.0 mg/kg/injection, schedule: Q01DX009 (ip), vehicle: Klucel (hydroxypropylcellulose) (HPC)
[16] = dose: 200.0 mg/kg/injection, schedule: Q01DX009 (ip), vehicle: Klucel (hydroxypropylcellulose) (HPC)
[17] = dose: 200.0 mg/kg/injection, schedule: Q04DX003 (ip), vehicle: saline with Tween-80
[18] = dose: 400.0 mg/kg/injection, schedule: Q04DX003 (ip), vehicle: saline with Tween-80

Measured: T/C

O=C1c2ccccc2-c2cc(Br)c([N+](=O)[O-])c(Br)c21
inactive: [1] 96 % of control | [2] 101 % of control | [3] 102 % of control

On1ccccc1=S
inactive: dose: 6.25 mg/kg/injection, schedule: Q04DX002 (ip), vehicle: saline with Tween-80 100 % of control | dose: 12.5 mg/kg/injection, schedule: Q04DX002 (ip), vehicle: saline with Tween-80 111 % of control | dose: 25.0 mg/kg/injection, schedule: Q04DX002 (ip), vehicle: saline with Tween-80 100 % of control

COCCOCCOc1ccc(Cl)cc1
inactive: dose: 100.0 mg/kg/injection, schedule: Q04DX002 (ip), vehicle: saline 92 % of control | dose: 200.0 mg/kg/injection, schedule: Q04DX002 (ip), vehicle: saline 107 % of control | dose: 400.0 mg/kg/injection, schedule: Q04DX002 (ip), vehicle: saline 88 % of control

O=[N+]([O-])c1ccc(C(SCc2ccccc2)SCc2ccccc2)cc1
inactive: dose: 75.0 mg/kg/injection, schedule: Q01DX001 (ip), vehicle: carboxymethylcellulose (CMC) 97 % of control | dose: 150.0 mg/kg/injection, schedule: Q01DX001 (ip), vehicle: carboxymethylcellulose (CMC) 100 % of control | dose: 300.0 mg/kg/injection, schedule: Q01DX001 (ip), vehicle: carboxymethylcellulose (CMC) 97 % of control

CCO[Si](CC)(CC)CC
inactive: dose: 100.0 mg/kg/injection, schedule: Q01DX009 (ip), vehicle: saline 100 % of control | dose: 200.0 mg/kg/injection, schedule: Q01DX009 (ip), vehicle: saline 98 % of control | dose: 400.0 mg/kg/injection, schedule: Q01DX009 (ip), vehicle: saline 102 % of control

NC(=S)N1CCCC1
inactive: [4] 93 % of control | [5] 96 % of control | [6] 93 % of control

O=C(CC(=O)C(F)(F)F)c1csc2ccccc12
inactive: dose: 15.0 mg/kg/injection, schedule: Q01DX015 (ip), vehicle: other 108 % of control | dose: 25.0 mg/kg/injection, schedule: Q01DX009 (ip), vehicle: saline 92 % of control | dose: 25.0 mg/kg/injection, schedule: Q04DX003 (ip), vehicle: acetone 97 % of control | dose: 30.0 mg/kg/injection, schedule: Q01DX015 (ip), vehicle: other 94 % of control | dose: 50.0 mg/kg/injection, schedule: Q01DX009 (ip), vehicle: saline 92 % of control | dose: 50.0 mg/kg/injection, schedule: Q04DX003 (ip), vehicle: acetone 100 % of control | dose: 60.0 mg/kg/injection, schedule: Q01DX015 (ip), vehicle: other 97 % of control | [7] 95 % of control | dose: 100.0 mg/kg/injection, schedule: Q04DX003 (ip), vehicle: acetone 97 % of control | dose: 120.0 mg/kg/injection, schedule: Q01DX015 (ip), vehicle: other 94 % of control

CCOC(=O)/C(O)=C\c1n[n+]([O-])ccc1Cl
inactive: [8] 104 % of control | [9] 112 % of control | [10] 93 % of control

O=C(O)c1ccccc1NC(=S)c1ccccc1
inactive: dose: 25.0 mg/kg/injection, schedule: Q04DX002 (ip), vehicle: other 96 % of control | dose: 50.0 mg/kg/injection, schedule: Q04DX002 (ip), vehicle: other 96 % of control | dose: 100.0 mg/kg/injection, schedule: Q04DX002 (ip), vehicle: other 93 % of control and 104 % of control

CCC(CC=C(C)C)(CC=C(C)C)c1ccncc1 (tested in a mixture with another compound)
inactive: [7] 97 % of control | dose: 200.0 mg/kg/injection, schedule: Q01DX001 (ip), vehicle: saline 102 % of control | dose: 400.0 mg/kg/injection, schedule: Q01DX001 (ip), vehicle: saline 97 % of control

O=[N+]([O-])c1ccccc1SSc1ccccc1[N+](=O)[O-]
inactive: [11] 105 % of control | [1] 94 % of control | [12] 95 % of control | [2] 109 % of control | [13] 98 % of control | [3] 100 % of control | dose: 400.0 mg/kg/injection, schedule: Q01DX009 (ip), vehicle: saline with Tween-80 98 % of control

CCC(C)OC(c1ccc2c(c1)OCO2)C(C)Br (stereo not drawn)
inactive: dose: 100.0 mg/kg/injection, schedule: Q04DX002 (ip), vehicle: saline with Tween-80 107 % of control | dose: 200.0 mg/kg/injection, schedule: Q04DX002 (ip), vehicle: saline with Tween-80 93 % of control | dose: 400.0 mg/kg/injection, schedule: Q04DX002 (ip), vehicle: saline with Tween-80 96 % of control

O=C(Nc1ccc(Cl)cc1)c1cccc([N+](=O)[O-])c1O
inactive: dose: 6.25 mg/kg/injection, schedule: Q01DX009 (ip), vehicle: Klucel (hydroxypropylcellulose) (HPC) 102 % of control | dose: 12.5 mg/kg/injection, schedule: Q01DX009 (ip), vehicle: Klucel (hydroxypropylcellulose) (HPC) 106 % of control | dose: 25.0 mg/kg/injection, schedule: Q01DX009 (ip), vehicle: Klucel (hydroxypropylcellulose) (HPC) 95 % of control

CNC(=O)Nc1nnnc2ccccc12
inactive: dose: 25.0 mg/kg/injection, schedule: Q04DX003 (ip), vehicle: saline with Tween-80 92 % of control | dose: 50.0 mg/kg/injection, schedule: Q04DX003 (ip), vehicle: saline with Tween-80 94 % of control | [14] 89 % of control

COC1(OC)C2(Cl)C(Cl)=C(Cl)C1(Cl)C1C2CS1(=O)=O (stereo not drawn)
inactive: [11] 100 % of control | [1] 92 % of control | [2] 100 % of control | [3] 89 % of control

O=C(O)/C=C/c1ccc(O)cc1
inactive: dose: 75.0 mg/kg/injection, schedule: Q04DX003 (ip), vehicle: Klucel (hydroxypropylcellulose) (HPC) 97 % of control | dose: 150.0 mg/kg/injection, schedule: Q04DX003 (ip), vehicle: Klucel (hydroxypropylcellulose) (HPC) 101 % of control | dose: 300.0 mg/kg/injection, schedule: Q04DX003 (ip), vehicle: Klucel (hydroxypropylcellulose) (HPC) 109 % of control

CC(C)NC(=O)C1CC2c3cccc4[nH]c(Br)c(c34)CC2N(C)C1 (stereo not drawn)
inactive: dose: 5.0 mg/kg/injection, schedule: Q04DX003 (ip), vehicle: saline with Tween-80 94 % of control | dose: 10.0 mg/kg/injection, schedule: Q04DX003 (ip), vehicle: saline with Tween-80 93 % of control | dose: 20.0 mg/kg/injection, schedule: Q04DX003 (ip), vehicle: saline with Tween-80 88 % of control

N#CCCCc1ccccc1
inactive: dose: 50.0 mg/kg/injection, schedule: Q01DX009 (ip), vehicle: Klucel (hydroxypropylcellulose) (HPC) 96 % of control | [15] 104 % of control | [16] 112 % of control

O=S(=O)(F)c1cccc2nsnc12
inactive: dose: 25.0 mg/kg/injection, schedule: Q04DX003 (ip), vehicle: Klucel (hydroxypropylcellulose) (HPC) 95 % of control | dose: 50.0 mg/kg/injection, schedule: Q04DX003 (ip), vehicle: Klucel (hydroxypropylcellulose) (HPC) 101 % of control | [4] 87 % of control | dose: 100.0 mg/kg/injection, schedule: Q04DX003 (ip), vehicle: carboxymethylcellulose (CMC) 93 % of control | dose: 400.0 mg/kg/injection, schedule: Q04DX003 (ip), vehicle: carboxymethylcellulose (CMC) 104 % of control

c1nc(SCSc2ncnc3nc[nH]c23)c2[nH]cnc2n1
inactive: [14] 97 % of control | [17] 90 % of control | [18] 90 % of control

CCOC(=O)c1ccc(NC(=O)Oc2ccc(SC)cc2)cc1
inactive: [15] 90 % of control | [16] 94 % of control | dose: 400.0 mg/kg/injection, schedule: Q01DX009 (ip), vehicle: Klucel (hydroxypropylcellulose) (HPC) 94 % of control

C/C(Cc1ccccc1)=N/N(C)C
inactive: [12] 113 % of control | [14] 102 % of control | [13] 104 % of control | [17] 95 % of control | [18] 95 % of control

O=C(COc1ccc(Cl)cc1)Nc1ccccc1
inactive: [8] 109 % of control | [9] 98 % of control | [10] 103 % of control

CC1(C(N)=O)OC12CCCCC2CCC(=O)O (stereo not drawn)
inactive: [4] 102 % of control | [5] 93 % of control | [6] 93 % of control
